Experimental data: patent US20070117743A1, “New antitumoral compounds” (priority 2003, published 2007)
Where a SMILES comes first, the peptide text is derived from it. Bridges are numbered along the chain shown (N, C = ends). [ ]: non-standard residue; d: D form. The star is where a group is joined. d(aIle) = CC[C@H](C)[C@@H](N)C(=O)O; d(aThr) = C[C@@H](O)[C@@H](N)C(=O)O; Hexanoyl(5-Me) = CC(C)CCCC(=O)*; Orn = NCCC[C@H](N)C(=O)O; Dhb = C/C=C(\N)C(=O)O

Legend:
Format in all cases: cell-based, human
A-549 = assay: SRB colorimetric assay of cell growth and viability, A-549; details: 48 hours exposure; for GI50: read-out: GI50 A-549; for CC50: read-out: LC50 A-549
SK-MEL-28 = assay: SRB colorimetric assay of cell growth and viability, SK-MEL-28; details: 48 hours exposure; for CC50: read-out: LC50 MEL-28
HT-29 = assay: SRB colorimetric assay of cell growth and viability, HT-29; details: 48 hours exposure; for GI50: read-out: GI50 HT-29; for CC50: read-out: LC50 HT-29
LoVo = assay: SRB colorimetric assay of cell growth and viability, LoVo; details: 48 hours exposure; for CC50: read-out: LC50 LOVO
LoVo-Dox = assay: SRB colorimetric assay of cell growth and viability, LoVo-Dox; details: 48 hours exposure; for CC50: read-out: LC50 LOVO-DOX
Outline: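 After 48 hours continuous exposure to samples spanning 10 to 10^−8 μg/mL, biomass was quantified by sulforhodamine B staining of TCA-fixed cells (OD 490 nm). Cells, 5×10^3 per well in RPMI 1640 10% FBS, had attached 18 hours first; GI, TGI and LC derived from triplicate wells.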

DU-145 = assay: SRB colorimetric assay of cell growth and viability, DU-145; details: 48 hours exposure
LNCaP = assay: SRB colorimetric assay of cell growth and viability, LNCaP; details: 48 hours exposure; for GI50: read-out: GI50 LN-caP; for CC50: read-out: LC50 LN-caP
SK-BR-3 = assay: SRB colorimetric assay of cell growth and viability, SK-BR-3; details: 48 hours exposure
IGROV-1 = assay: SRB colorimetric assay of cell growth and viability, IGROV-1; details: 48 hours exposure
IGROV-ET = assay: SRB colorimetric assay of cell growth and viability, IGROV-ET; details: 48 hours exposure; for CC50: read-out: LC50 IGROV-ET
HeLa = assay: SRB colorimetric assay of cell growth and viability, HeLa; details: 48 hours exposure; for CC50: read-out: LC50 HELA
HeLa-APL = assay: SRB colorimetric assay of cell growth and viability, HeLa-APL; details: 48 hours exposure; for CC50: read-out: LC50 HELA-APL
K-562 = assay: SRB colorimetric assay of cell growth and viability, K-562; details: 48 hours exposure; for CC50: read-out: LC50 K-562
PANC-1 = assay: SRB colorimetric assay of cell growth and viability, PANC-1; details: 48 hours exposure; for CC50: read-out: LC50 PANC-1

For `C/C=C1\NC(=O)[C@H](Cc2ccccc2)NC(=O)[C@@H](C(C)C)NC(=O)[C@@H]([C@@H](C)CC)NC(=O)[C@H](NC(=O)[C@H](NC(=O)[C@H](CCCN)NC(=O)[C@H]2CCCN2C(=O)[C@H](NC(=O)[C@@H](NC(=O)[C@@H](NC(=O)[C@H](NC(=O)CCCC(C)C)C(C)C)[C@@H](C)O)C(C)C)C(C)C)[C@@H](C)CC)[C@H](C)OC(=O)[C@H](C(C)C)NC1=O` [Compound 2, [D-Thr^6]-KF], the “TGI A-549” value (A-549) was 6.77E−06 Molar, the GI50 (A-549) was no less than 6770 nM and the CC50 (A-549) was no less than 6770 nM. The GI50 (SK-MEL-28) was no less than 6770 nM, the “TGI MEL-28” value (SK-MEL-28) was 6.77E−06 Molar and the CC50 (SK-MEL-28) was no less than 6770 nM. For the same compound, the “TGI HT-29” value (HT-29) was 6.77E−06 Molar, the GI50 (HT-29) was no less than 6770 nM and the CC50 (HT-29) was no less than 6770 nM. The GI50 (LoVo) was no less than 6770 nM, the “TGI LOVO” value (LoVo) was 6.77E−06 Molar and the CC50 (LoVo) was no less than 6770 nM. The GI50 (LoVo-Dox) was 3060 nM, the “TGI LOVO-DOX” value (LoVo-Dox) was 6.77E−06 Molar and the CC50 (LoVo-Dox) was no less than 6770 nM. For the same compound, the GI50 (DU-145) was 5290 nM, the LC50 (concentration causing 50% net cell kill) (DU-145) was no less than 6770 nM and the “TGI DU-145” value (DU-145) was 6.77E−06 Molar. For the same compound, the “TGI LN-caP” value (LNCaP) was 6.77E−06 Molar, the GI50 (LNCaP) was 2130 nM and the CC50 (LNCaP) was no less than 6770 nM. For the same compound, the GI50 (SK-BR-3) was 4470 nM, the LC50 (SK-BR-3) was no less than 6770 nM and the “TGI SK-BR-3” value (SK-BR-3) was 6.77E−06 Molar. For the same compound, the GI50 (IGROV-1) was 1990 nM, the LC50 (concentration causing 50% net cell killing) (IGROV-1) was no less than 6770 nM and the “TGI IGROV” value (IGROV-1) was 5.33E−06 Molar. For the same compound, the GI50 (IGROV-ET) was 1600 nM, the “TGI IGROV-ET” value (IGROV-ET) was 3.80E−06 Molar and the CC50 (IGROV-ET) was no less than 6770 nM. For the same compound, the GI50 (HeLa) was no less than 6770 nM, the “TGI HELA” value (HeLa) was 6.77E−06 Molar and the CC50 (HeLa) was no less than 6770 nM. The GI50 (HeLa-APL) was no less than 6770 nM, the “TGI HELA-APL” value (HeLa-APL) was 6.77E−06 Molar and the CC50 (HeLa-APL) was no less than 6770 nM. For the same compound, the GI50 (K-562) was no less than 6770 nM, the “TGI K-562” value (K-562) was 6.77E−06 Molar and the CC50 (K-562) was no less than 6770 nM. For the same compound, the GI50 (PANC-1) was no less than 6770 nM, the “TGI PANC-1” value (PANC-1) was 6.77E−06 Molar and the CC50 (PANC-1) was no less than 6770 nM.

With `C/C=C1\NC(=O)[C@H](Cc2ccccc2)NC(=O)[C@@H](C(C)C)NC(=O)[C@@H]([C@@H](C)CC)NC(=O)[C@H](NC(=O)[C@H](NC(=O)[C@H](CCCN)NC(=O)[C@H]2CCCN2C(=O)[C@H](NC(=O)[C@@H](NC(=O)[C@@H](NC(=O)[C@H](NC(=O)CCCC(C)C)C(C)C)[C@@H](C)O)C(C)C)C(C)C)[C@@H](C)CC)COC(=O)[C@H](C(C)C)NC1=O` [Compound 3, [D-Ser^6]-KF] ({Hexanoyl(5-Me)}-[dV]TV[dV][dP][Orn][d(aIle)][dS][d(aIle)][dV]F[Dhb]V; ester 8-C) the “TGI A-549” value (A-549) was 2.46E−06 Molar, the GI50 (A-549) was 1360 nM and the CC50 (A-549) was 4470 nM. For the same compound, the GI50 (SK-MEL-28) was 1570 nM, the “TGI MEL-28” value (SK-MEL-28) was 2.66E−06 Molar and the CC50 (SK-MEL-28) was 4530 nM. The “TGI HT-29” value (HT-29) was 1.22E−06 Molar, the GI50 (HT-29) was 378 nM and the CC50 (HT-29) was 3520 nM. For the same compound, the GI50 (LoVo) was 189 nM, the “TGI LOVO” value (LoVo) was 3.64E−07 Molar and the CC50 (LoVo) was 758 nM. For the same compound, the GI50 (LoVo-Dox) was 179 nM, the “TGI LOVO-DOX” value (LoVo-Dox) was 3.37E−07 Molar and the CC50 (LoVo-Dox) was 637 nM. The GI50 (DU-145) was 833 nM, the LC50 (concentration causing 50% net cell kill) (DU-145) was 3440 nM and the “TGI DU-145” value (DU-145) was 1.69E−06 Molar. The “TGI LN-caP” value (LNCaP) was 1.12E−06 Molar, the GI50 (LNCaP) was 372 nM and the CC50 (LNCaP) was 2940 nM. For the same compound, the GI50 (SK-BR-3) was 406 nM, the LC50 (SK-BR-3) was 2450 nM and the “TGI SK-BR-3” value (SK-BR-3) was 6.23E−07 Molar. For the same compound, the GI50 (IGROV-1) was 455 nM, the LC50 (concentration causing 50% net cell killing) (IGROV-1) was 3160 nM and the “TGI IGROV” value (IGROV-1) was 1.27E−06 Molar. The GI50 (IGROV-ET) was 264 nM, the “TGI IGROV-ET” value (IGROV-ET) was 6.38E−07 Molar and the CC50 (IGROV-ET) was 2110 nM. For the same compound, the GI50 (HeLa) was 1350 nM, the “TGI HELA” value (HeLa) was 2.64E−06 Molar and the CC50 (HeLa) was 5210 nM. The GI50 (HeLa-APL) was 1370 nM, the “TGI HELA-APL” value (HeLa-APL) was 2.28E−06 Molar and the CC50 (HeLa-APL) was 3780 nM. For the same compound, the GI50 (K-562) was 5080 nM, the “TGI K-562” value (K-562) was 6.83E−06 Molar and the CC50 (K-562) was no less than 6830 nM. The GI50 (PANC-1) was 3080 nM, the “TGI PANC-1” value (PANC-1) was 6.83E−06 Molar and the CC50 (PANC-1) was no less than 6830 nM.

`C/C=C1\NC(=O)[C@H](Cc2ccccc2)NC(=O)[C@@H](C(C)C)NC(=O)[C@@H]([C@@H](C)CC)NC(=O)[C@H](NC(=O)[C@H](NC(=O)[C@H](CCCN)NC(=O)[C@H]2CCCN2C(=O)[C@H](NC(=O)[C@@H](NC(=O)[C@@H](NC(=O)[C@H](NC(=O)CCCC(C)C)C(C)C)C(C)C)C(C)C)C(C)C)[C@@H](C)CC)[C@@H](C)OC(=O)[C@H](C(C)C)NC1=O` [Compound 6, [Val^12]-KF] ({Hexanoyl(5-Me)}-[dV]VV[dV][dP][Orn][d(aIle)][d(aThr)][d(aIle)][dV]F[Dhb]V; ester 8-C) was tested, and the “TGI A-549” value (A-549) was 8.54E−07 Molar, the GI50 (A-549) was 257 nM and the CC50 (A-549) was 2360 nM. The GI50 (SK-MEL-28) was 175 nM, the “TGI MEL-28” value (SK-MEL-28) was 2.94E−07 Molar and the CC50 (SK-MEL-28) was 492 nM. For the same compound, the “TGI HT-29” value (HT-29) was 2.68E−07 Molar, the GI50 (HT-29) was 148 nM and the CC50 (HT-29) was 485 nM. The GI50 (LoVo) was 133 nM, the “TGI LOVO” value (LoVo) was 2.48E−07 Molar and the CC50 (LoVo) was 463 nM. The GI50 (LoVo-Dox) was 159 nM, the “TGI LOVO-DOX” value (LoVo-Dox) was 2.83E−07 Molar and the CC50 (LoVo-Dox) was 503 nM. For the same compound, the GI50 (DU-145) was 165 nM, the LC50 (concentration causing 50% net cell kill) (DU-145) was 523 nM and the “TGI DU-145” value (DU-145) was 2.94E−07 Molar. For the same compound, the “TGI LN-caP” value (LNCaP) was 1.00E−06 Molar, the GI50 (LNCaP) was 313 nM and the CC50 (LNCaP) was 2780 nM. For the same compound, the GI50 (SK-BR-3) was 102 nM, the LC50 (SK-BR-3) was 482 nM and the “TGI SK-BR-3” value (SK-BR-3) was 2.22E−07 Molar. The GI50 (IGROV-1) was 150 nM, the LC50 (concentration causing 50% net cell killing) (IGROV-1) was 598 nM and the “TGI IGROV” value (IGROV-1) was 2.99E−07 Molar. The GI50 (IGROV-ET) was 154 nM, the “TGI IGROV-ET” value (IGROV-ET) was 2.91E−07 Molar and the CC50 (IGROV-ET) was 549 nM. For the same compound, the GI50 (HeLa) was 144 nM, the “TGI HELA” value (HeLa) was 2.63E−07 Molar and the CC50 (HeLa) was 480 nM. The GI50 (HeLa-APL) was 379 nM, the “TGI HELA-APL” value (HeLa-APL) was 1.04E−06 Molar and the CC50 (HeLa-APL) was 3110 nM. For the same compound, the GI50 (K-562) was 661 nM, the “TGI K-562” value (K-562) was 1.44E−06 Molar and the CC50 (K-562) was 3070 nM. For the same compound, the GI50 (PANC-1) was 1020 nM, the “TGI PANC-1” value (PANC-1) was 1.96E−06 Molar and the CC50 (PANC-1) was 3800 nM.
